Experimental data taken from the NIST ThermoML archive (doi:10.1021/je7006692).

Experiment: relative permittivity at zero frequency (dimensionless)
Details: Liquid

Cc1ccccc1 [toluene]
Reentrant cavity resonator
Details	relative permittivity at zero frequency
290.63 K, 100 kPa	2.40453
290.65 K, 100 kPa	2.40448
290.69 K, 2170 kPa	2.41272
290.77 K, 4240 kPa	2.41409
290.81 K, 6310 kPa	2.41721
290.83 K, 8370 kPa	2.4202
290.87 K, 12510 kPa	2.42629
290.88 K, 16100 kPa	2.43136
290.9 K, 16650 kPa	2.4322
291.15 K, 100 kPa	2.3983
292.65 K, 100 kPa	2.40346
294.8 K, 100 kPa	2.39092
310.68 K, 100 kPa	2.35675
310.79 K, 100 kPa	2.35646
311.94 K, 100 kPa	2.35363
314.47 K, 100 kPa	2.3479
315.68 K, 100 kPa	2.34035
315.77 K, 100 kPa	2.33999
315.78 K, 1140 kPa	2.34185
315.78 K, 8370 kPa	2.35428
315.79 K, 2170 kPa	2.34366
315.79 K, 3200 kPa	2.34545
315.79 K, 4240 kPa	2.34729
315.79 K, 6310 kPa	2.35078
315.79 K, 12510 kPa	2.36095
315.79 K, 16650 kPa	2.3674
315.79 K, 19410 kPa	2.37152
320.64 K, 100 kPa	2.32926
320.66 K, 1140 kPa	2.33114
324.52 K, 100 kPa	2.32053
324.53 K, 1140 kPa	2.32241
324.54 K, 2170 kPa	2.32435
324.54 K, 3200 kPa	2.32625
324.54 K, 4240 kPa	2.32811
324.54 K, 6310 kPa	2.33179
324.58 K, 8370 kPa	2.33528
324.61 K, 12510 kPa	2.34222
324.62 K, 16650 kPa	2.34897
339.31 K, 100 kPa	2.28784
339.35 K, 2170 kPa	2.2919
339.38 K, 4240 kPa	2.29596
339.38 K, 6310 kPa	2.29992
339.39 K, 8370 kPa	2.3038
339.41 K, 12510 kPa	2.31127
339.41 K, 16650 kPa	2.31844
357.44 K, 6310 kPa	2.26156
357.45 K, 2170 kPa	2.25261
357.45 K, 4240 kPa	2.25717
357.46 K, 100 kPa	2.24793
357.52 K, 8370 kPa	2.26578
357.54 K, 12510 kPa	2.274
357.55 K, 16650 kPa	2.28185
390.53 K, 170 kPa	2.17781
390.53 K, 2170 kPa	2.18342
390.59 K, 100 kPa	2.17698
390.59 K, 4240 kPa	2.18899
390.61 K, 6310 kPa	2.19431
390.63 K, 8370 kPa	2.19969
390.65 K, 12510 kPa	2.20969
390.68 K, 16650 kPa	2.21925
405.84 K, 2170 kPa	2.14947
406.3 K, 6310 kPa	2.16081
406.32 K, 4240 kPa	2.15467
406.37 K, 8370 kPa	2.16653
406.54 K, 12510 kPa	2.17721
406.64 K, 16650 kPa	2.18731

Details	relative permittivity at zero frequency
297.37 K, 34905 kPa	2.443
297.37 K, 41879 kPa	2.4564
297.38 K, 27906 kPa	2.4276
297.39 K, 20942 kPa	2.4127
297.4 K, 13927 kPa	2.3962
297.41 K, 6919 kPa	2.3777
